# Reference: patent US6376510B1, “Neuromuscular relaxants” (Newlaxant LLC, priority 1997, dated 2002)
# Like-named read-outs stand apart in the source and are kept apart here.
# Columns and labels:
# [1] = system: anesthetized cats (evoked responses of anterior tibial muscle); assay: animal or person; conditions: for RI (recovery index): spontaneous recovery, 25-75% neuromuscular response; for Onset: time to 80-85% neuromuscular block
# Outline: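 Adult cats anesthetized i.p. with 70 mg/kg alpha chloralose plus 0.5 g/kg ethylurethane; agents in saline given i.v. Anterior tibial muscle responses to supramaximal single or train-of-four stimuli of sciatic or peroneal nerve recorded electromyographically and mechanomyographically, alongside blood pressure and heart rate.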
# anesthetized monkeys = assay: In vivo neuromuscular block and cardiovascular side effects, monkey (Example 8, Table 6); conditions: for ED50: intravenous dose causing 50% neuromuscular block; for RI (recovery index): spontaneous recovery, 25-75% neuromuscular response; for Onset: time to 80-85% neuromuscular block
# Outline: (§1)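 Electromyographic and mechanomyographic responses quantified. Monkeys sedated with intramuscular ketamine, then general anesthesia with intravenous pentobarbital and propofol; juvenile pigs induced with inhaled halothane.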
# rabbits = assay: In vivo neuromuscular block and cardiovascular side effects, rabbit (Example 8, Table 7); conditions: for ED50: intravenous dose causing 50% neuromuscular block; for RI (recovery index): spontaneous recovery, 25-75% neuromuscular response; for Onset: time to 80-85% neuromuscular block
# [2] = system: anesthetized rats (evoked responses of anterior tibial muscle); assay: In vivo neuromuscular block and cardiovascular side effects, anesthetized rat (Example 8, Table 3); conditions: for RI (recovery index): spontaneous recovery, 25-75% neuromuscular response; for Onset: time to 80-85% neuromuscular block
# Outline: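 Pentobarbital-anesthetized (i.p.), ventilated adult male rats given saline-dissolved agents i.v.; anterior tibial EMG responses to supramaximal single or train-of-four sciatic/peroneal stimuli, plus 0.1 or 1 Hz stimulation. Doses for 50%, 80%, 90% block derived. Onset: minutes to 80-85% block; RI: 25-75% spontaneous recovery; vagal block, heart rate and blood pressure changes (%) at 80-85% blocking dose.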
# [3] = system: anesthetized juvenile pigs; assay: animal or person; type: in vivo; conditions: pig; for ED50: intravenous dose causing 50% neuromuscular block; for RI (recovery index): spontaneous recovery, 25-75% neuromuscular response; for Onset: time to 80-85% neuromuscular block
# Outline: as §1
# dogs = assay: animal or person; type: in vivo; conditions: dog; for ED50: intravenous dose causing 50% neuromuscular block; for RI (recovery index): spontaneous recovery, 25-75% neuromuscular response; for Onset: time to 80-85% neuromuscular block
# [4] = cat, at 80-85% neuromuscular blocking dose
# [5] = at 80-85% neuromuscular blocking dose
# [6] = Oryctolagus cuniculus, read-out: ED50
# [7] = rat, at 80-85% neuromuscular blocking dose
# [8] = Canis lupus familiaris, read-out: ED50
# [9] = cat, intravenous dose causing 50% neuromuscular block
# [10] = rat, intravenous dose causing 50% neuromuscular block
smiles,measurement,setting,value
"COc1cc(C[N+]2(C)[C@@H]3CC[C@H]2C[C@@H](OC(=O)C2CCC2C(=O)O[C@H]2C[C@H]4CC[C@@H](C2)[N+]4(C)Cc2ccc(OC(C)=O)c(OC)c2)C3)ccc1OC(C)=O.[Br-].[Br-] (stereo partly drawn) [bis[N-(4-acetoxy-3-methoxybenzyl)tropanium-3α-yl]cyclobutane-1,2-dicarboxylate dibromide]",ED50,"[1]; Felis catus, iv",0.16 mg/kg
same,VB (vagal block),[1]; [4],20%
same,ΔBP (change in arterial blood pressure),[1]; [4],0%
same,ΔH (change in heart rate),[1]; [4],0%
same,RI (recovery index),[1]; cat,0.5 min
same,Onset,[1]; cat,0.9 min
same,ED50,"anesthetized monkeys; Primates, read-out: ED50",0.092 mg/kg
same,ΔBP (change in arterial blood pressure),anesthetized monkeys; [5],0%
same,ΔH (change in heart rate),anesthetized monkeys; [5],0%
same,RI (recovery index),anesthetized monkeys,0.5 min
same,Onset,anesthetized monkeys,0.75 min
same,ED50,rabbits; [6],0.075 mg/kg
same,ΔBP (change in arterial blood pressure),rabbits; [5],0%
same,ΔH (change in heart rate),rabbits; [5],0%
same,RI (recovery index),rabbits,0.55 min
same,Onset,rabbits,0.6 min
same,ED50,"[2]; Rattus norvegicus, iv",0.35 mg/kg
same,VB (vagal block),[2]; [7],20%
same,ΔBP (change in arterial blood pressure),[2]; [7],0%
same,ΔH (change in heart rate),[2]; [7],0%
same,RI (recovery index),[2]; rat,0.5 min
same,Onset,[2]; rat,0.6 min
same,ED50,"[3]; Sus scrofa, read-out: ED50",0.268 mg/kg
same,VB (vagal block),[3]; [5],46%
same,ΔBP (change in arterial blood pressure),[3]; [5],0%
same,ΔH (change in heart rate),[3]; [5],0%
same,RI (recovery index),[3],0.87 min
same,Onset,[3],0.5 min
same,ED50,dogs; [8],0.145 mg/kg
same,ΔBP (change in arterial blood pressure),dogs; [5],−15%
same,ΔH (change in heart rate),dogs; [5],45%
same,RI (recovery index),dogs,0.7 min
same,Onset,dogs,0.85 min
"CC(=O)Oc1ccc(C[N+]2(C)C3CCCC2CC(OC(=O)CCCC(=O)OC2CC4CCCC(C2)[N+]4(C)Cc2ccc(OC(C)=O)c(OC(C)=O)c2)C3)cc1OC(C)=O.[Br-].[Br-] (stereo not drawn) [bis[N-(3,4-diacetoxybenzyl)granataninium-3-yl]glutarate dibromide]",ED50,[1]; [9],0.7 mg/kg
same,RI (recovery index),[1]; cat,0.4 min
same,Onset,[1]; cat,0.7 min
same,VB (vagal block),[1]; in vivo,60%
same,ΔBP (change in arterial blood pressure),[1]; in vivo,−50%
same,ΔH (change in heart rate),[1]; in vivo,0%
same,ΔBP (change in arterial blood pressure),anesthetized monkeys; in vivo,0%
same,ΔH (change in heart rate),anesthetized monkeys; in vivo,0%
same,ED50,anesthetized monkeys,0.075 mg/kg
same,RI (recovery index),anesthetized monkeys,0.4 min
same,Onset,anesthetized monkeys,0.7 min
same,ΔBP (change in arterial blood pressure),rabbits; in vivo,0%
same,ΔH (change in heart rate),rabbits; in vivo,0%
same,ED50,rabbits,0.165 mg/kg
same,RI (recovery index),rabbits,0.55 min
same,Onset,rabbits,0.65 min
same,VB (vagal block),"[2]; rat, in vivo",0%
same,ΔBP (change in arterial blood pressure),"[2]; rat, in vivo",0%
same,ΔH (change in heart rate),"[2]; rat, in vivo",0%
same,ED50,[2]; [10],0.17 mg/kg
same,RI (recovery index),[2]; rat,0.45 min
same,Onset,[2]; rat,0.6 min
same,VB (vagal block),[3]; in vivo,40%
same,ΔBP (change in arterial blood pressure),[3]; in vivo,0%
same,ΔH (change in heart rate),[3]; in vivo,0%
same,ED50,[3],0.235 mg/kg
same,RI (recovery index),[3],0.9 min
same,Onset,[3],0.8 min
same,ΔBP (change in arterial blood pressure),dogs; in vivo,−18%
same,ΔH (change in heart rate),dogs; in vivo,50%
same,ED50,dogs,0.225 mg/kg
same,RI (recovery index),dogs,0.6 min
same,Onset,dogs,0.65 min
"CC(=O)Oc1ccc(C[N+]2(C)C3CCCC2CC(OC(=O)CCCCCCC(=O)OC2CC4CCCC(C2)[N+]4(C)Cc2ccc(OC(C)=O)c(OC(C)=O)c2)C3)cc1OC(C)=O.[Br-].[Br-] (stereo not drawn) [bis[N-(3,4-diacetoxybenzyl)granataninium-3-yl]suberate dibromide]",ED50,[1]; [9],0.7 mg/kg
same,RI (recovery index),[1]; cat,0.5 min
same,Onset,[1]; cat,0.6 min
same,VB (vagal block),[1]; in vivo,80%
same,ΔBP (change in arterial blood pressure),[1]; in vivo,−20%
same,ΔH (change in heart rate),[1]; in vivo,0%
same,ΔBP (change in arterial blood pressure),anesthetized monkeys; in vivo,0%
same,ΔH (change in heart rate),anesthetized monkeys; in vivo,0%
same,ED50,anesthetized monkeys,0.2 mg/kg
same,RI (recovery index),anesthetized monkeys,0.4 min
same,Onset,anesthetized monkeys,0.9 min
same,ΔBP (change in arterial blood pressure),rabbits; in vivo,0%
same,ΔH (change in heart rate),rabbits; in vivo,0%
same,ED50,rabbits,0.475 mg/kg
same,RI (recovery index),rabbits,0.55 min
same,Onset,rabbits,0.5 min
same,VB (vagal block),"[2]; rat, in vivo",60%
same,ΔBP (change in arterial blood pressure),"[2]; rat, in vivo",0%
same,ΔH (change in heart rate),"[2]; rat, in vivo",0%
same,ED50,[2]; [10],0.45 mg/kg
same,RI (recovery index),[2]; rat,0.35 min
same,Onset,[2]; rat,0.4 min
same,VB (vagal block),[3]; in vivo,80%
same,ΔBP (change in arterial blood pressure),[3]; in vivo,0%
same,ΔH (change in heart rate),[3]; in vivo,0%
same,ED50,[3],0.25 mg/kg
same,RI (recovery index),[3],0.8 min
same,Onset,[3],0.6 min
same,ΔBP (change in arterial blood pressure),dogs; in vivo,−55%
same,ΔH (change in heart rate),dogs; in vivo,60%
same,ED50,dogs,0.25 mg/kg
same,RI (recovery index),dogs,0.45 min
same,Onset,dogs,0.8 min
"COc1cc(C[N+]2(C)[C@@H]3CC[C@H]2C[C@@H](OC(=O)C2CCCC(C(=O)O[C@H]4C[C@H]5CC[C@@H](C4)[N+]5(C)Cc4ccc(OC(C)=O)c(OC)c4)C2)C3)ccc1OC(C)=O.[Br-].[Br-] (stereo partly drawn) [bis[N-(4-acetoxy-3-methoxybenzyl)tropanium-3α-yl]cyclohexane-1,3-dicarboxylate dibromide]",ED50,"[1]; Felis catus, iv",0.325 mg/kg
same,VB (vagal block),[1]; [4],33%
same,ΔBP (change in arterial blood pressure),[1]; [4],−5%
same,ΔH (change in heart rate),[1]; [4],0%
same,RI (recovery index),[1]; cat,0.5 min
same,Onset,[1]; cat,0.9 min
same,ED50,"anesthetized monkeys; Primates, read-out: ED50",0.1 mg/kg
same,ΔBP (change in arterial blood pressure),anesthetized monkeys; [5],0%
same,ΔH (change in heart rate),anesthetized monkeys; [5],0%
same,RI (recovery index),anesthetized monkeys,0.5 min
same,Onset,anesthetized monkeys,0.9 min
same,ED50,rabbits; [6],0.165 mg/kg
same,ΔBP (change in arterial blood pressure),rabbits; [5],0%
same,ΔH (change in heart rate),rabbits; [5],0%
same,RI (recovery index),rabbits,0.65 min
same,Onset,rabbits,0.65 min
same,ED50,"[2]; Rattus norvegicus, iv",0.27 mg/kg
same,VB (vagal block),[2]; [7],30%
same,ΔBP (change in arterial blood pressure),[2]; [7],0%
same,ΔH (change in heart rate),[2]; [7],0%
same,RI (recovery index),[2]; rat,0.45 min
same,Onset,[2]; rat,0.55 min
same,ED50,"[3]; Sus scrofa, read-out: ED50",0.183 mg/kg
same,VB (vagal block),[3]; [5],65%
same,ΔBP (change in arterial blood pressure),[3]; [5],0%
same,ΔH (change in heart rate),[3]; [5],0%
same,RI (recovery index),[3],0.75 min
same,Onset,[3],0.6 min
same,ED50,dogs; [8],0.28 mg/kg
same,ΔBP (change in arterial blood pressure),dogs; [5],−25%
same,ΔH (change in heart rate),dogs; [5],38%
same,RI (recovery index),dogs,0.5 min
same,Onset,dogs,0.75 min
"CC(=O)Oc1ccc(C[N+]2(C)[C@@H]3CC[C@H]2C[C@@H](OC(=O)C2CCCC(C(=O)O[C@H]4C[C@H]5CC[C@@H](C4)[N+]5(C)Cc4ccc(OC(C)=O)c(OC(C)=O)c4)C2)C3)cc1OC(C)=O.[Br-].[Br-] (stereo partly drawn) [bis[N-(3,4-diacetoxybenzyl)tropanium-3α-yl]cyclohexane-1,3-dicarboxylate dibromide]",ED50,"[1]; Felis catus, iv",0.11 mg/kg
same,VB (vagal block),[1]; [4],34%
same,ΔBP (change in arterial blood pressure),[1]; [4],−25%
same,ΔH (change in heart rate),[1]; [4],−12%
same,RI (recovery index),[1]; cat,0.5 min
same,Onset,[1]; cat,0.8 min
same,ED50,"anesthetized monkeys; Primates, read-out: ED50",0.075 mg/kg
same,ΔBP (change in arterial blood pressure),anesthetized monkeys; [5],0%
same,ΔH (change in heart rate),anesthetized monkeys; [5],0%
same,RI (recovery index),anesthetized monkeys,0.65 min
same,Onset,anesthetized monkeys,0.95 min
same,ED50,rabbits; [6],0.1 mg/kg
same,ΔBP (change in arterial blood pressure),rabbits; [5],0%
same,ΔH (change in heart rate),rabbits; [5],0%
same,RI (recovery index),rabbits,0.7 min
same,Onset,rabbits,0.9 min
same,ED50,"[2]; Rattus norvegicus, iv",0.24 mg/kg
same,VB (vagal block),[2]; [7],28%
same,ΔBP (change in arterial blood pressure),[2]; [7],0%
same,ΔH (change in heart rate),[2]; [7],0%
same,RI (recovery index),[2]; rat,0.5 min
same,Onset,[2]; rat,0.65 min
same,ED50,"[3]; Sus scrofa, read-out: ED50",0.225 mg/kg
same,VB (vagal block),[3]; [5],54%
same,ΔBP (change in arterial blood pressure),[3]; [5],0%
same,ΔH (change in heart rate),[3]; [5],0%
same,RI (recovery index),[3],0.85 min
same,Onset,[3],0.8 min
same,ED50,dogs; [8],0.128 mg/kg
same,ΔBP (change in arterial blood pressure),dogs; [5],−5%
same,ΔH (change in heart rate),dogs; [5],30%
same,RI (recovery index),dogs,0.55 min
same,Onset,dogs,0.75 min
